Results reported in patent US20090054971A1, “DRUG ELUTING STENT SYSTEM AND MANUFACTURING PROCESS OF DRUG ELUTING STENT SYSTEM” (TERUMO KABUSHIKI KAISHA, priority 2005, published 2009).

Experiment: Storage stability of the rapamycin derivative (bulk, in glass bottle), percent residual by HPLC
Assay type: physicochemical
Procedure: A biologically/physiologically active substance and a deoxidant were placed and sealed within a package. After stored at 40° C. for four weeks, the remaining amount of the biologically/physiologically active substance was measured by high speed liquid chromatography (HPLC) to determine its percent residue.
Biologically/physiologically active substance: A rapamycin derivative represented by the following chemical formula (I) (product of Nippon Kayaku Co., Ltd.). An aliquot (0.03 g) of the rapamycin derivative was placed in a glass bottle, and further, the glass bottle was placed within the below-described package.
Deoxidant: “ZH-100” (product of Mitsubishi Gas Chemical Co, Inc.). Two bags, the volume of each bag being sufficient for 100 mL, were placed and sealed within the package.
Package: An aluminum pouch in the form of a bag of a size of 300 mm in length, 300 mm in width and 0.1 mm in thickness, which was formed of a stacked structure of polyethylene terephthalate, low-density polyethylene, an aluminum film, low-density polyethylene and high-density polyethylene as materials.
After stored in the above-described state at 40° C. for four weeks, the biologically/physiologically active substance was taken out of the package and was provided as “Sample A1” for HPLC. […]
By the following equation, the percent residual of the rapamycin derivative in Sample A1 was determined. […]

| Compound | Percent residual (%) (stored in air at 40° C. for four weeks) | Percent residual (%) (sealed with deoxidant ZH-100 in aluminum pouch, stored at 40° C. for four weeks) |
| --- | --- | --- |
| CCOCCOC1CCC(CC(C)C2CC(=O)C(C)C(O)C(C)C(O)C(OC)C(=O)C(C)CC(C)/C=C/C=C/C=C(\C)C(OC)CC3CCC(C)C(O)(O3)C(O)C(=O)N3CCCCC3C(=O)O2)CC1OC (centres unmarked) [Comparative Example 1] | 18.2% |  |
| CCOCCOC1CCC(CC(C)C2CC(=O)C(C)C(O)C(C)C(O)C(OC)C(=O)C(C)CC(C)/C=C/C=C/C=C(\C)C(OC)CC3CCC(C)C(O)(O3)C(O)C(=O)N3CCCCC3C(=O)O2)CC1OC (centres unmarked) [Example 1] |  | 97.3% |
